Assay results: PubChem BioAssay (NCI)
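Exposure lasted 48 hours, with cells grown in 96-well plates and compounds tested at five concentrations. At the TGI there is no net growth.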

Key:
Experiment in all cases: inhibition of tumour cell growth, NCI panel, 48 h
HT29 colon = test system: HT29 colon
SK-MEL-2 melanoma = test system: SK-MEL-2 melanoma
T-47D breast = test system: T-47D breast
MCF7 breast = test system: MCF7 breast
COLO 205 colon = test system: COLO 205 colon
MDA-N = test system: MDA-N
MDA-MB-435 = test system: MDA-MB-435
OVCAR-8 ovarian = test system: OVCAR-8 ovarian
SK-MEL-5 melanoma = test system: SK-MEL-5 melanoma
SN12C renal = test system: SN12C renal

Row | Structure (SMILES) | TGI (HT29 colon) | TGI (SK-MEL-2 melanoma) | TGI (T-47D breast) | TGI (MCF7 breast) | TGI (COLO 205 colon) | TGI (MDA-N) | TGI (MDA-MB-435) | TGI (OVCAR-8 ovarian) | TGI (SK-MEL-5 melanoma) | TGI (SN12C renal)
1 | O=c1[nH]/c(=C/c2ccc(OCc3ccccc3)cn2)c(=O)[nH]/c1=C/c1cccnc1 | > 100 µM | > 44.1 µM | > 100 µM | > 100 µM | 6.13 µM | 0.71 µM | 0.261 µM | > 100 µM | – | –
2 | O=C(CSCC(=O)N/N=C\c1cc(Br)cc(Br)c1O)N/N=C\c1cc(Br)cc(Br)c1O | > 100 µM | 42.7 µM | > 100 µM | > 100 µM | > 100 µM | – | > 100 µM | 68 µM | 92.2 µM | > 100 µM
3 | COC(=O)C1(C(=O)OC)CC2=C(S(=O)(=O)c3ccccc3)C[C@@H](C#N)[C@H]2C1 | > 100 µM | > 100 µM | – | > 100 µM | > 100 µM | > 100 µM | > 100 µM | > 100 µM | > 100 µM | > 100 µM
4 | CC(C)(C)OC(=O)N(CCCN)CCCCN(CCCN)C(=O)OC(C)(C)C | > 100 µM | > 100 µM | > 100 µM | > 100 µM | > 100 µM | – | > 100 µM | > 100 µM | > 100 µM | –
5 | C[N+](C)(C)CC(=O)N/N=C(\C(=O)Nc1ccc(Cl)cc1)C1C(=O)N(c2ccccc2)N=C1N (configuration not stated) | > 100 µM | > 100 µM | – | – | > 100 µM | – | – | > 100 µM | > 100 µM | > 100 µM
6 | C=CCn1c(=O)c(-c2ccccc2)c(O)c2ccccc21 | > 100 µM | – | – | > 100 µM | > 100 µM | > 100 µM | > 100 µM | > 100 µM | > 100 µM | > 100 µM
7 | O=C(N/N=C/c1cc(-c2ccccc2Cl)c(-c2ccccc2Cl)o1)c1ccncc1 | > 100 µM | > 100 µM | – | – | > 100 µM | – | – | – | – | > 100 µM
8 | COc1ccc(C2Oc3cc(OC)c(O)cc3[C@@H]2C)cc1 (some centres not stated) | > 100 µM | > 100 µM | – | – | > 100 µM | – | – | 56.6 µM | > 100 µM | –
9 | CC(C)(C)OC(=O)NCCNC(=O)OCc1ccccc1 | > 100 µM | > 100 µM | – | > 100 µM | > 100 µM | > 100 µM | > 100 µM | > 100 µM | > 100 µM | > 100 µM
10 | CCC(c1ccc(N(C)C)cc1)C1NC(=S)NC1=O (configuration not stated) | > 100 µM | – | > 100 µM | > 100 µM | > 100 µM | > 100 µM | > 100 µM | > 100 µM | > 100 µM | > 100 µM
11 | N#Cc1c(C#N)c(-c2ccco2)n(/N=C/c2ccco2)c1N | > 100 µM | > 100 µM | > 100 µM | > 100 µM | > 100 µM | – | > 100 µM | 66.2 µM | > 100 µM | > 100 µM
12 | O=C(c1ccccc1)c1cc(-c2ccccc2)c(-c2ccccc2)[nH]c(=O)c1=O | > 100 µM | 57.5 µM | – | > 100 µM | 61.5 µM | > 100 µM | > 100 µM | > 100 µM | > 100 µM | > 100 µM
13 | Cc1c2cccc-2c(N(C)C)cc2c1[nH]c1ccccc12 | 18.2 µM | – | 5.09 µM | 24.1 µM | 3.42 µM | 22.4 µM | 22.5 µM | 10.3 µM | 18.5 µM | 20.2 µM
